Values after ≈ are worked out from the molar mass of the structure shown.
Experiments:
MCF7 = assay: Cytotoxicity against human MCF7 cells after 24 hrs; format: functional, cell-based
HL-60 = assay: Cytotoxicity against human HL60 cells after 24 hrs; format: functional, cell-based
A549 = assay: Cytotoxicity against human A549 cells after 24 hrs; format: functional, cell-based
CHO = assay: Cytotoxicity against CHO cells after 24 hrs; format: cell-based, Cricetulus griseus
A-375 = assay: Cytotoxicity against human A375 cells after 24 hrs; format: functional, cell-based
[1] = Homo sapiens, MCF7, 24 h, read-out: IC50
[2] = Homo sapiens, HL-60, 24 h, read-out: IC50
[3] = Homo sapiens, A549, 24 h, read-out: IC50
[4] = Cricetulus griseus, CHO, 24 h, read-out: IC50
[5] = Homo sapiens, A-375, 24 h, read-out: IC50

SMILES | IC50 (MCF7; [1]) [µg/mL] | IC50 (HL-60; [2]) [µg/mL] | IC50 (A549; [3]) [µg/mL] | IC50 (CHO; [4]) [µg/mL] | IC50 (A-375; [5]) [µg/mL] | IC50 (MCF7; mcf7) [µg/mL] | IC50 (HL-60; hl-60) [µg/mL] | IC50 (CHO; cho) [µg/mL] | IC50 (A-375; a-375) [µg/mL] | IC50 (A549; a549) [µg/mL]
CC1=CC(=O)[C@H]2C(C)(C)CCC[C@]2(C)[C@H]1/C=C/C1=CC2OC1C1OCCC21 (stereo partly drawn) | 30.1 (≈ 81.8 µM) | 38.4 (≈ 104 µM) | 48.4 (≈ 131 µM) | – | – | – | – | – | – | –
CC1=CC(=O)[C@H]2C(C)(C)CCC[C@]2(C)[C@H]1/C=C/C1=C[C@H]2O[C@H]1[C@@H]1C(=O)OC(=O)[C@@H]12 | 18.6 (≈ 46.9 µM) | 17 (≈ 42.9 µM) | 39.9 (≈ 101 µM) | 10.4 (≈ 26.3 µM) | 20.4 (≈ 51.4 µM) | – | – | – | – | –
CC1(C)CCC[C@@]2(C)[C@H]1C(=O)CC(C)(C1(C)CC(=O)[C@H]3C(C)(C)CCC[C@]3(C)C1/C=C/c1ccoc1)[C@@H]2/C=C/c1ccoc1 (stereo partly drawn) | 11.2 (≈ 18.7 µM) | 13.9 (≈ 23.1 µM) | 23 (≈ 38.4 µM) | 6.91 (≈ 11.5 µM) | 16.8 (≈ 28.1 µM) | – | – | – | – | –
CC1=CC(=O)[C@H]2C(C)(C)CCC[C@]2(C)[C@H]1[C@@H]1O[C@@H]1c1ccoc1 | 20.1 (≈ 63.9 µM) | 19.4 (≈ 61.8 µM) | 31.1 (≈ 99.1 µM) | 9.61 (≈ 30.6 µM) | 26.1 (≈ 83.1 µM) | – | – | – | – | –
CC1(C)CCC[C@]2(C)[C@@H](/C=C/c3ccoc3)C(CO)=CC(=O)[C@@H]12 [YUNNACORONARIN D] | 34.3 (≈ 109 µM) | 26.2 (≈ 83.3 µM) | 50.1 (≈ 159 µM) | 39 (≈ 124 µM) | 40 (≈ 127 µM) | – | – | – | – | –
CC1=CC(=O)[C@H]2C(C)(C)CCC[C@]2(C)[C@H]1/C=C/C1=CC2OC1C1CNCC21 (stereo in doubt; 3p) | – | – | – | – | – | 31.98 (≈ 87 µM) | 43.18 (≈ 117 µM) | – | – | –
CC1=CC(=O)[C@H]2C(C)(C)CCC[C@]2(C)[C@H]1/C=C/C1=C[C@H]2O[C@H]1[C@H]1C(=O)OC(=O)[C@H]12 (stereo in doubt; 3c) | – | – | – | – | – | 23.18 (≈ 58.5 µM) | 21.73 (≈ 54.8 µM) | 11.08 (≈ 27.9 µM) | 27.84 (≈ 70.2 µM) | –
COC1CCC2C3C=C(/C=C/[C@H]4C(C)=CC(=O)[C@H]5C(C)(C)CCC[C@]45C)C(O3)C2O1 (stereo in doubt; 3g) | 28.1 (≈ 68.1 µM) | 27.7 (≈ 67.1 µM) | 43.2 (≈ 105 µM) | 13.1 (≈ 31.7 µM) | 30.2 (≈ 73.2 µM) | – | – | – | – | –
CC1=CC(=O)[C@H]2C(C)(C)CCC[C@]2(C)[C@H]1/C=C/C1=CC2OC1C1C(=O)c3ccccc3C(=O)C21 (stereo in doubt; 3l) | – | – | 34.5 (≈ 75.5 µM) | – | – | 14.72 (≈ 32.2 µM) | 13.88 (≈ 30.4 µM) | 7.91 (≈ 17.3 µM) | 18.64 (≈ 40.8 µM) | –
CC1CC(=O)[C@H]2C(C)(C)CCC[C@]2(C)[C@H]1CCc1ccoc1 (stereo partly drawn) | > 100 | > 100 | – | – | > 100 | – | – | – | – | –
CC1=CC(=O)[C@H]2C(C)(C)CCC[C@]2(C)[C@H]1/C=C/C1=C[C@H]2O[C@H]1[C@H]1C(=O)C=CC(=O)[C@H]12 | 15.7 (≈ 38.7 µM) | 14.1 (≈ 34.6 µM) | 35.9 (≈ 88.3 µM) | 8.19 (≈ 20.1 µM) | 19 (≈ 46.8 µM) | – | – | – | – | –
CC1=CC(=O)[C@H]2C(C)(C)CCC[C@]2(C)[C@H]1/C=C/C1=CC2OC1C1CNCC21 (stereo in doubt; 3o) | 36.7 (≈ 99.9 µM) | 39.9 (≈ 108 µM) | – | 19.2 (≈ 52.2 µM) | – | – | – | – | – | –
CC1=CC(=O)[C@H]2C(C)(C)CCC[C@]2(C)[C@H]1C=O | 38.1 (≈ 163 µM) | 39.7 (≈ 169 µM) | – | 34.9 (≈ 149 µM) | 35.1 (≈ 150 µM) | – | – | – | – | –
CC1=CC(=O)[C@H]2C(C)(C)CCC[C@]2(C)[C@H]1/C=C/C1=C[C@@H]2O[C@@H]1[C@H]1C(=O)OC(=O)[C@H]12 | 24.1 (≈ 60.8 µM) | 28.1 (≈ 70.9 µM) | – | 12.1 (≈ 30.6 µM) | 30.4 (≈ 76.7 µM) | – | – | – | – | –
CC1=CC(=O)[C@H]2C(C)(C)CCC[C@]2(C)[C@H]1/C=C/C1=C[C@H]2O[C@H]1[C@@H]1C(=O)C=CC(=O)[C@@H]12 | 15.4 (≈ 37.9 µM) | 14.7 (≈ 36.2 µM) | – | 8.28 (≈ 20.4 µM) | 20.1 (≈ 49.5 µM) | – | – | – | – | –
CC1=CC(=O)[C@H]2C(C)(C)CCC[C@]2(C)[C@H]1/C=C/c1ccoc1 [HEDYCHENONE] | 19.4 (≈ 65 µM) | 17.7 (≈ 59.2 µM) | 33.1 (≈ 111 µM) | 8.2 (≈ 27.5 µM) | 21.1 (≈ 70.8 µM) | – | – | – | – | –
CC1=CC(=O)[C@H]2C(C)(C)CCC[C@]2(C)[C@H]1CCc1ccoc1 | > 100 | 87 (≈ 290 µM) | – | – | 60 (≈ 200 µM) | – | – | – | – | –
CC1=CC(=O)[C@H]2C(C)(C)CCC[C@]2(C)[C@H]1/C=C/C1=CC2OC1C1C(=O)c3ccccc3C(=O)C21 (stereo in doubt; 3k) | 15 (≈ 32.8 µM) | 13.7 (≈ 30 µM) | – | 7.94 (≈ 17.4 µM) | 18.7 (≈ 41 µM) | – | – | – | – | –
COC1CCC2C3OC(C=C3/C=C/[C@H]3C(C)=CC(=O)[C@H]4C(C)(C)CCC[C@]34C)C2O1 (stereo in doubt; 3h) | 28 (≈ 67.8 µM) | 27.1 (≈ 65.8 µM) | 43 (≈ 104 µM) | 14.1 (≈ 34.3 µM) | 32.1 (≈ 77.9 µM) | – | – | – | – | –
COC1CCC2C3OC(C=C3/C=C/[C@H]3C(C)=CC(=O)[C@H]4C(C)(C)CCC[C@]34C)C2O1 (stereo in doubt; 3j) | – | – | – | – | – | – | – | 14.03 (≈ 34 µM) | – | –
CC1=CC(=O)[C@H]2C(C)(C)CCC[C@]2(C)[C@H]1/C=C/C1=C[C@H]2O[C@H]1[C@H]1C(=O)OC(=O)[C@H]12 (stereo in doubt; 3b) | 17 (≈ 42.9 µM) | 16.9 (≈ 42.7 µM) | 36.4 (≈ 91.9 µM) | 9.11 (≈ 23 µM) | 20 (≈ 50.5 µM) | – | – | – | – | –
CC1=CC(=O)[C@H]2C(C)(C)CCC[C@]2(C)[C@H]1/C=C/C1=CC2OC1C1CCOC21 (stereo partly drawn) | 33.9 (≈ 91.9 µM) | 38 (≈ 103 µM) | – | – | 43.1 (≈ 117 µM) | – | – | – | – | –
COC1CCC2C3C=C(/C=C/[C@H]4C(C)=CC(=O)[C@H]5C(C)(C)CCC[C@]45C)C(O3)C2O1 (stereo in doubt; 3i) | – | – | – | – | – | 29.3 (≈ 71 µM) | 28.41 (≈ 68.9 µM) | 13.91 (≈ 33.7 µM) | 31.12 (≈ 75.4 µM) | 47.71 (≈ 116 µM)

— ChEMBL document CHEMBL1156159, “Synthesis, cytotoxic activity and structure-activity relationships of hedychenone analogues” (Bioorg Med Chem Lett, 2010)
